Assay results from patent US20260250320A1, “LIPIDATED PEPTIDE INHIBITORS OF INTERLEUKIN-23 RECEPTOR” (Janssen Pharmaceutica NV, priority 2023, published 2026).
*1 amine or outer side, *2 acyl side, *3 side chain or, on linkers, in order; H or OH if unused. Where a SMILES comes first, the peptide text is derived from it. Bridges are numbered along the chain shown (N, C = ends). Roman numbers before positions name the chains, in order. Side-chain parts run from the residue outwards. [ ]: non-standard residue; d: D form. The star is where a group is joined. ξ: configuration not given here. X25 = C[N+](C)(C)C[C@@H](CC(=O)O)NC(=O)CCC(=O)CCCCC[C@H](N[*:1])C(=O)[*:2]; X19 = CC(C)(S[*:2])[C@H](N[*:3])C(=O)C[C@@H](Cc1ccc(OCCN)cc1)C(=O)[*:1]; X39 = O=C(O)CCCCCCCCCCCCCCCCC(=O)NC(CCC(=O)NCCCCCOCC(=O)*)C(=O)O; X11 = CN(CC(N)=O)C(=O)[C@H](Cc1cccnc1)NC(O)[C@H](CC(N)=O)N*; Trp(7-Me) = Cc1cccc2c(C[C@H](N)C(=O)O)c[nH]c12; C18 diacid = O=C(O)CCCCCCCCCCCCCCCCC(=O)*; γGlu = O=C(O)[C@H](CCC(=O)[*:2])N[*:1]; 2Nal = N[C@@H](Cc1ccc2ccccc2c1)C(=O)O; AEF = NCCOc1ccc(C[C@H](N)C(=O)O)cc1; ξγGlu = O=C(O)C(CCC(=O)[*:2])N[*:1]; X2 = C[N+](C)(C)C[C@@H](CC(=O)O)N*; 3Pal = N[C@@H](Cc1cccnc1)C(=O)O; NMeK = CN[C@@H](CCCCN)C(=O)O; Pen = CC(C)(S)[C@H](N)C(=O)O; Suc = O=C(CCC(=O)[*:2])[*:1]; Thp = NC1(C(=O)O)CCOCC1; AEEA = NCCOCCOCC(=O)O; ξK = NCCCCC(N)C(=O)O; Sar = CNCC(=O)O

Columns and labels:
IL-23R = target: T1, IL-23R (Homo sapiens, UniProt Q5VWK5); experiment: IL23R Reporter Assay; format: cell-based; conditions: HEK293 cells containing IL-23R, IL-12Rβ1 and STAT-inducible firefly luciferase reporter; 10 ng/mL IL-23 (EC90); 5 h
T1 construct: HEK293 cells containing IL-23R, IL-12Rβ1 and a firefly luciferase reporter gene driven by a STAT-inducible promoter (Promega); host or cells: HEK293
T1 sequence (Q5VWK5 24-629): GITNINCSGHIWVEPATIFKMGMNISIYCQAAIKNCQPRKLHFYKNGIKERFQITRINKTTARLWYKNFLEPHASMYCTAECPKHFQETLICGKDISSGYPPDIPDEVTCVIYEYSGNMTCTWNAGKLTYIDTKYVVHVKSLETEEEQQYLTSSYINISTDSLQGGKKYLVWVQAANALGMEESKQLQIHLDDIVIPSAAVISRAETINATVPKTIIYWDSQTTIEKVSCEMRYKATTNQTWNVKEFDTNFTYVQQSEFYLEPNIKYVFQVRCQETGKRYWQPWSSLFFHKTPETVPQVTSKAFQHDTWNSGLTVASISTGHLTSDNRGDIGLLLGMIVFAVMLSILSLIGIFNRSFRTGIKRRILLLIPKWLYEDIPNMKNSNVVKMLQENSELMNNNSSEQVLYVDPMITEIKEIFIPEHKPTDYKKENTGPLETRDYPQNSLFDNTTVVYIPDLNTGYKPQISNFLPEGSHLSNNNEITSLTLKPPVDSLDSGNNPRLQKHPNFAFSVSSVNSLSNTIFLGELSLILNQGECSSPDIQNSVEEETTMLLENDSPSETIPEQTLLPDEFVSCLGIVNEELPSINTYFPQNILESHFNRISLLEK
In short: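 IC50 values were fitted with a 4-parameter Hill equation to luciferase signal, scaled between IL-23-only wells (0% inhibition) and 30 μM reference inhibitor (100%). The readout was a STAT-inducible reporter in IL-23R/IL-12Rβ1 HEK293 cells, stimulated with added 10 ng/mL IL-23 (EC90) for 5 h at 37° C and developed with BioGlo.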

[1] = tested on: IL-23-stimulated phosphorylated STAT3 in peripheral blood mononuclear cells (PBMCs); experiment: PBMC pSTAT3 Assay; format: cell-based; conditions: PBMCs from healthy donors; 30 min preincubation with peptide; IL-23 5 ng/mL for 30 min; phospho-STAT3 by MSD
In short: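 Phospho-STAT3 quantified by Meso Scale assay in lysates of PBMCs exposed to IL-23 (5 ng/mL, 30 min, 37 °C) after 30 min peptide pretreatment. Cells were cryopreserved donor PBMCs activated 4 days with anti-CD3 plus IL-1β (100 ng/mL) and starved ~4 h; IC50 reported.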

| Compound | IC50 (IL-23R) [nM] | IC50 [1] [nM] |
| --- | --- | --- |
| CC(=O)NCCCC[C@@H]1NC(=O)[C@H](Cc2c[nH]c3c(C)cccc23)NC(=O)[C@H]([C@@H](C)O)NC(=O)[C@H](CCCCCC(=O)CCC(=O)N[C@H](CC(=O)O)C[N+](C)(C)C)NC(=O)[C@@H](NC(=O)[C@@H](CCCNC(=N)N)NC(C)=O)C(C)(C)SSC(C)(C)[C@@H](C(=O)C[C@@H](Cc2ccc(OCCN)cc2)C(=O)N[C@@H](Cc2ccc3ccccc3c2)C(=O)NC2(C(=O)N[C@@H](CCCCNC(=O)COCCOCCNC(=O)COCCOCCNC(=O)CC[C@H](NC(=O)CCCCCCCCCCCCCCCCC(=O)O)C(=O)O)C(=O)N[C@@H](CC(N)=O)C(=O)N[C@@H](Cc3cccnc3)C(=O)N(C)CC(N)=O)CCOCC2)NC1=O [compound 37, MeCO-r-Pen(3)-K(d)-T-7MeW-K(Ac)-Pen(3)-AEF-2Nal-THP-K(PEG2PEG2gEC18OH)-N-3Pya-Sar-CONH2] (I: [2Nal][Thp]K([AEEA-AEEA-γGlu-C18 diacid])N[3Pal][Sar]-NH2 / II: Ac-[dR][Pen][X25]T[Trp(7-Me)]K(Ac); linker I:N-II:2-II:C via X19) | < 50 | < 0.5 |
| CC(=O)N[C@H](CCCNC(=N)N)C(=O)N[C@@H]1C(=O)N[C@@H](CC(N)=O)C(=O)N[C@@H]([C@@H](C)O)C(=O)N[C@@H](Cc2c[nH]c3c(C)cccc23)C(=O)N[C@@H](CCC(N)=O)C(=O)N[C@H](C(=O)N[C@@H](Cc2ccc(OCCN)cc2)C(=O)N[C@@H](Cc2ccc3ccccc3c2)C(=O)NC2(C(=O)N[C@@H](CCC(=O)O)C(=O)N[C@@H](CC(N)=O)C(=O)N[C@@H](Cc3cccnc3)C(=O)N(C)CC(=O)N[C@@H](CCCCNC(=O)COCCOCCNC(=O)COCCOCCNC(=O)CC[C@H](NC(=O)CCCCCCCCCCCCCCCCC(=O)O)C(=O)O)C(=O)O)CCOCC2)C(C)(C)SSC1(C)C [compound 38, MeCO-r-Pen(3)-N-T-7MeW-Q-Pen(3)-AEF-2Nal-THP-E-N-3Pya-Sar-K(PEG2PEG2gEC18OH)-CONH2] (Ac-[dR][Pen]NT[Trp(7-Me)]Q[Pen][AEF][2Nal][Thp]EN[3Pal][Sar]K([AEEA-AEEA-γGlu-C18 diacid])-OH; disulfide 2-7) | < 50 | < 0.5 |
| CC(=O)NCCCCC1NC(=O)[C@H](Cc2c[nH]c3c(C)cccc23)NC(=O)[C@H]([C@@H](C)O)NC(=O)[C@H](CC(N)=O)NC(=O)[C@@H](NC(=O)[C@H](CCCCNC(=O)COCCOCCNC(=O)COCCOCCNC(=O)CC[C@H](NC(=O)CCCCCCCCCCCCCCCCC(=O)O)C(=O)O)NC(C)=O)C(C)(C)SSC(C)(C)[C@@H](C(=O)N[C@@H](Cc2ccc(OCCN)cc2)C(=O)N[C@@H](Cc2ccc3ccccc3c2)C(=O)NC2(C(=O)N[C@@H](CCCCNC(C)=O)C(=O)N[C@@H](CC(N)=O)C(=O)N[C@@H](Cc3cccnc3)C(=O)N(C)CC(N)=O)CCOCC2)NC1=O (stereo partly drawn) [compound 39, MeCO-K(PEG2PEG2gEC18OH)-Pen(3)-N-T-7MeW-K(Ac)-Pen(3)-AEF-2Nal-THP-K(Ac)-N-3Pya-Sar-CONH2] (Ac-K([AEEA-AEEA-γGlu-C18 diacid])[Pen]NT[Trp(7-Me)][ξK](Ac)[Pen][AEF][2Nal][Thp]K(Ac)N[3Pal][Sar]-NH2; disulfide 2-7) | < 50 | < 0.5 |
| CC(=O)NCCCC[C@@H]1NC(=O)[C@H](Cc2c[nH]c3c(C)cccc23)NC(=O)[C@H]([C@@H](C)O)NC(=O)[C@H](CC(N)=O)NC(=O)[C@@H](NC(=O)[C@@H](CCCNC(=N)N)NC(C)=O)C(C)(C)SSC(C)(C)[C@@H](C(=O)N[C@@H](Cc2ccc(OCCN)cc2)C(=O)N[C@@H](Cc2ccc3ccccc3c2)C(=O)NC2(C(=O)N[C@@H](CCCCNC(=O)CCC(=O)N[C@H](CC(=O)O)C[N+](C)(C)C)C(=O)N[C@@H](CC(N)=O)C(=O)N[C@@H](Cc3cccnc3)C(=O)N(C)[C@@H](CCCCNC(=O)COCCOCCNC(=O)COCCCCCNC(=O)CCC(NC(=O)CCCCCCCCCCCCCCCCC(=O)O)C(=O)O)C(N)=O)CCOCC2)NC1=O (stereo partly shown) [compound 41, MeCO-r-Pen(3)-N-T-7MeW-K(Ac)-Pen(3)-AEF-2Nal-THP-K(d)-N-3Pya-NMeK(PEG2PEG2gEC18OH)-CONH2] (Ac-[dR][Pen]NT[Trp(7-Me)]K(Ac)[Pen][AEF][2Nal][Thp]K([Suc-X2])N[3Pal][NMeK]([AEEA-X39])-NH2; disulfide 2-7) | 50 to 500 | < 0.5 |
| CC(=O)NCCCC[C@@H]1NC(=O)[C@H](Cc2c[nH]c3c(C)cccc23)NC(=O)[C@H]([C@@H](C)O)NC(=O)[C@H](CC(N)=O)NC(=O)[C@@H](NC(=O)[C@@H](CCCCNC(=O)COCCOCCNC(=O)COCCOCCNC(=O)CCC(NC(=O)CCCCCCCCCCCCCCCCC(=O)O)C(=O)O)NC(C)=O)C(C)(C)SSC(C)(C)[C@@H](C(=O)N[C@@H](Cc2ccc(OCCN)cc2)C(=O)N[C@@H](Cc2ccc3ccccc3c2)C(=O)NC2(C(=O)N[C@@H](CCC(=O)O)C(=O)N[C@@H](CC(N)=O)C(=O)N[C@@H](Cc3cccnc3)C(=O)N(C)[C@@H](CCCCNC(=O)CCC(=O)N[C@H](CC(=O)O)C[N+](C)(C)C)C(N)=O)CCOCC2)NC1=O (stereo partly shown) [compound 42, MeCO-k(PEG2PEG2gEC18OH)-Pen(3)-N-T-7MeW-K(Ac)-Pen(3)-AEF-2Nal-THP-E-N-3Pya-NMeK(d)-CONH2] (Ac-[dK]([AEEA-AEEA-ξγGlu-C18 diacid])[Pen]NT[Trp(7-Me)]K(Ac)[Pen][AEF][2Nal][Thp]EN[3Pal][NMeK]([Suc-X2])-NH2; disulfide 2-7) | < 50 | < 0.5 |
| CC(=O)NCCCC[C@@H]1NC(=O)[C@H](Cc2c[nH]c3c(C)cccc23)NC(=O)[C@H]([C@@H](C)O)NC(=O)[C@H](CC(N)=O)NC(=O)[C@@H](NC(=O)C(CCCNC(=N)N)CC(=O)COCCOCCNC(=O)COCCOCCNC(=O)CC[C@H](NC(=O)CCCCCCCCCCCCCCCCC(=O)O)C(=O)O)C(C)(C)SSC(C)(C)[C@@H](C(=O)N[C@@H](Cc2ccc(OCCN)cc2)C(=O)N[C@@H](Cc2ccc3ccccc3c2)C(=O)NC2(C(=O)N[C@@H](CCC(=O)O)C(=O)N[C@@H](CC(N)=O)C(=O)N[C@@H](Cc3cccnc3)C(=O)N(C)[C@@H](CCCCNC(=O)CCC(=O)N[C@H](CC(=O)O)C[N+](C)(C)C)C(N)=O)CCOCC2)NC1=O (stereo partly shown) [compound 43, HOC18gEPEG2PEG2CO-r-Pen(3)-N-T-7MeW-K(Ac)-Pen(3)-AEF-2Nal-THP-E-N-3Pya-NMeK(d)-CONH2] | < 50 | < 0.5 |
| CC(=O)NCCCC[C@@H]1NC(=O)[C@H](Cc2c[nH]c3c(C)cccc23)NC(=O)[C@H]([C@@H](C)O)NC(=O)[C@H](CC(N)=O)NC(=O)[C@@H](NC(=O)COCCOCCNC(=O)COCCOCCNC(=O)CC[C@H](NC(=O)CCCCCCCCCCCCCCCCC(=O)O)C(=O)O)C(C)(C)SSC(C)(C)[C@@H](C(=O)N[C@@H](Cc2ccc(OCCN)cc2)C(=O)N[C@@H](Cc2ccc3ccccc3c2)C(=O)NC2(C(=O)N[C@@H](CCCCNC(=O)CCC(=O)N[C@H](CC(=O)O)C[N+](C)(C)C)C(=O)N[C@@H](CC(N)=O)C(O)N[C@@H](Cc3cccnc3)C(=O)N(C)CC(N)=O)CCOCC2)NC1=O (stereo partly drawn) [compound 44, HOC18gEPEG2PEG2CO-Pen(3)-N-T-7MeW-K(Ac)-Pen(3)-AEF-2Nal-THP-K(d)-N-3Pya-Sar-CONH2] | < 50 | < 0.5 |
| CC(=O)NCCCC[C@@H]1NC(=O)[C@H](Cc2c[nH]c3c(C)cccc23)NC(=O)[C@H]([C@@H](C)O)NC(=O)[C@H](CC(N)=O)NC(=O)[C@@H](NC(=O)[C@@H](CCCNC(=N)N)NC(=O)COCCOCCNC(=O)COCCOCCNC(=O)CC[C@H](NC(=O)CCCCCCCCCCCCCCCCC(=O)O)C(=O)O)C(C)(C)SSC(C)(C)[C@@H](C(=O)N[C@@H](Cc2ccc(OCCN)cc2)C(=O)N[C@@H](Cc2ccc3ccccc3c2)C(=O)NC2(C(=O)N[C@@H](CCCCNC(=O)CCC(=O)N[C@H](CC(=O)O)C[N+](C)(C)C)C(=O)N[C@@H](CC(N)=O)C(O)N[C@@H](Cc3cccnc3)C(=O)N(C)CC(N)=O)CCOCC2)NC1=O (stereo partly drawn) [compound 45, HOC18gEPEG2PEG2CO-r-Pen(3)-N-T-7MeW-K(Ac)-Pen(3)-AEF-2Nal-THP-K(d)-N-3Pya-Sar-CONH2] ({C18 diacid-γGlu-AEEA-AEEA}-[dR][Pen]NT[Trp(7-Me)]K(Ac)[Pen][AEF][2Nal][Thp]K([Suc-X2])-X11; disulfide 2-7) | 50 to 500 | < 0.5 |
